Results: US7253299B2, “Process for purifying n2-(1(s)-ethoxycarbonyl-3-phenylpropyl)-n6-thifluoroacetyl-l-lysine” (Kaneka Corporation, priority 2001, dated 2007)

Experiment: Solubility of polymorphs in water/acetonitrile mixed solvent (saturated solution, HPLC)
Assay type: physicochemical
Conditions: water/acetonitrile mixed solvent (water/acetonitrile volume ratio 0.25), 15° C., ordinary pressure
Experimental: A 50 ml four-neck flask was charged with 30 ml of a water/acetonitrile mixed solvent (water/acetonitrile volume ratio 0.25). After cooling the solvent to 5° C. with stirring, 5 g of each of polymorphs (I form, […] and […]) of N^2-(1(S)-ethoxycarbonyl-3-phenylpropyl)-N^6-trifluoroacetyl-L-lysine was added thereto, and the temperature was elevated to a predetermined temperature at a rate of 10° C./hour. After reaching the predetermined temperature, the solution was maintained at that temperature for about 1 hour. A sample of the resulting saturated solution was taken out, and the concentration (% by weight) of N^2-(1(S)-ethoxycarbonyl-3-phenylpropyl)-N^6-trifluoroacetyl-L-lysine was measured by HPLC analysis to determine the solubility at that temperature.

| solubility | SMILES |
| --- | --- |
| about 3.1 % by weight | CCOC(=O)[C@H](CCc1ccccc1)N[C@@H](CCCCNC(=O)C(F)(F)F)C(=O)O [III form, N^2-(1(S)-ethoxycarbonyl-3-phenylpropyl)-N^6-trifluoroacetyl-L-lysine] |
| about 2.7 % by weight | CCOC(=O)[C@H](CCc1ccccc1)N[C@@H](CCCCNC(=O)C(F)(F)F)C(=O)O [II form, N^2-(1(S)-ethoxycarbonyl-3-phenylpropyl)-N^6-trifluoroacetyl-L-lysine] |
| about 2.5 % by weight | CCOC(=O)[C@H](CCc1ccccc1)N[C@@H](CCCCNC(=O)C(F)(F)F)C(=O)O [I form, N^2-(1(S)-ethoxycarbonyl-3-phenylpropyl)-N^6-trifluoroacetyl-L-lysine] |
